Measured values published in US20250051333A1, “POLYMORPH OF KRAS INHIBITOR, PREPARATION METHOD THEREFOR, AND USE THEREOF” (GENFLEET THERAPEUTICS (SHANGHAI) INC., priority 2021, published 2025).

What was measured:
Type in all cases: physicochemical
[1] = Variable-temperature XRPD / heating test of crystalline forms
Protocol: The X-ray powder diffraction (XRPD) analysis may be conducted on the X'Pert3 X-ray powder diffraction analyzer with the following parameters: Cu, kα; Kα1 (Å): 1.540598: Kα2 (Å): 1.544426; Kα2/Kα1 intensity ratio: 0.50; voltage: 45 kV; current: 40 mA; divergent slit: ⅛°; scan mode: continuous: scanning range: 3° to 40°: scanning step: 0.0263°; time of step: 46.665 s: scanning time: 5 min 03 s. Alternatively, the analysis may be conducted on the PANalytical Empyrean X-ray powder diffraction analyzer with the following parameters: Cu, kα; Kα1 (Å): 1.540598: Kα2 (Å); 1.544426: Kα2/Kα1 intensity ratio: 0.50: voltage: 45 kV; current; 40 mA: divergent slit: automatic; scan mode: continuous; scanning range: 3° to 40°; scanning step: 0.0167°; time of step: 17.780 s/33.020 s; scanning time: 5 min 32 s/10 min 13 s.

[2] = Humidity induction test: standing at various humidities at room temperature; settings: for Polymorphic transition or not: room temperature, open
Text: Some of the crystalline forms prepared in the above examples were investigated in a humidity induction test at room temperature.

[3] = Solid stability, 60° C./75% RH open, physical stability by XRPD; settings: for Polymorphic transition: 60° C./75% RH open, up to 1 month; for Crystalline form: XRPD
Protocol: Appropriate amounts of samples were weighed and let stand at 60° C./75% RH open to the atmosphere for 7 days, 14 days, and 1 month. Samples of different standing times were evaluated for the physical stability of the crystalline forms by XRPD.

[4] = Solid stability, 60° C. sealed 24 hours and 40° C./75% RH open one week (XRPD, HPLC, KF); settings: for Purity (%): HPLC; for Water content (%): KF test; for Polymorphic transition or not: XRPD; for HPLC purity change / Polymorphic transition: 60° C. sealed 24 hours and 40° C./75% RH open one week; for Relative to the initial (%): purity
Text: Proton nuclear magnetic resonance may be conducted on the Bruker 400M nuclear magnetic resonance spectrometer, with deuterated chloroform, deuterated methanol, or dimethyl sulfoxide-d6 as the solvent. Water titration (KF test) may be conducted on the Metrohm 870 KF Titrinoplus from Sigma-Aldrich, with ultrapure water for calibration and Hydranal® R-Composite 5 as the titration reagent. HPLC-grade methanol was used to dissolve the solid sample.
High-performance liquid chromatography (HPLC) may be conducted on the Agilent 1260 high-performance liquid chromatograph system (Waters Xbridge C18, 150×4.6 mm, 5 μm column).
In order to further evaluate the solid stability of the crystalline forms of the present invention, appropriate amounts of samples were for at 60° C. in a sealed condition for 24 hours and at 40° C./75% RH open to the atmosphere for a week.

[5] = Hygroscopicity by DVS testing; settings: for Desorption curve (cycle 1, desorption): DVS 25° C., from 30% RH to 95% RH
Protocol: The dynamic vapor sorption (DVS) analysis may be conducted on the DVS Intrinsic system from Surface Measurement Systems (SMS). Temperature: 25° C.: sample amount: 20-40 mg; protective gas and flow rate: N2, 200 mL/min; dm/dt: 0.002%/min; minimum dm/dt equilibration time: 10 min, maximum equilibration time. 180 min; RH range: room humidity to 95% RH to 0% RH to 95% RH: 0% RH to 95% RH to 0% RH; RH gradient: 10% RH (0% RH to 90% RH & 90% RH to 0% RH): 5% RH (90% RH to 95% RH & 95% RH to 90% RH).

[6] = 22.5% RH (saturated potassium acetate), 10 days
[7] = 22.5% RH (saturated potassium acetate), 23 days
[8] = 22.5% RH (saturated potassium acetate), 30 days
[9] = 43.2% RH (saturated potassium carbonate), 10 days
[10] = 43.2% RH (saturated potassium carbonate), 23 days
[11] = 43.2% RH (saturated potassium carbonate), 30 days
[12] = 60% RH (stability chamber), 10 days
[13] = 60% RH (stability chamber), 23 days
[14] = 60% RH (stability chamber), 30 days
[15] = 84.2% RH (saturated potassium chloride), 10 days
[16] = 84.2% RH (saturated potassium chloride), 23 days
[17] = 84.2% RH (saturated potassium chloride), 30 days
[18] = 30 days open to the atmosphere at room temperature at 22.5% RH to 84.2% RH
[19] = 23 days open to the atmosphere at room temperature at 43.2% RH to 84.2% RH

SMILES: C=CC(=O)N1CCN2c3c(c(=O)n(-c4c(C)ccnc4C(C)C)c4nc(-c5c(O)cccc5F)c(Cl)cc34)N(C)C(=O)[C@H]2C1 [Crystalline form 11, (4aR,8R)-3-acryloyl-11-chloro-10-(2-fluoro-6-hydroxyphenyl)-8-(2-isopropyl-4-methylpyridin-3-yl)-6-methyl-2,3,4,4a,6,8-hexahydro-1H-pyrazino[1′,2′:4,5]pyrazino[2,3-c][1,8]naphthyridine-5,7-dione]
- Crystalline form change on heating (variable-temperature XRPD) ([1]; holding at 30° C. for 20 minutes and heating to 100 C in a N2 atmosphere): no significant crystalline form changes were observed

SMILES: C=CC(=O)N1CCN2c3c(c(=O)n(-c4c(C)ccnc4C(C)C)c4nc(-c5c(O)cccc5F)c(Cl)cc34)N(C)C(=O)[C@H]2C1 [Crystalline form 4, (4aR,8R)-3-acryloyl-11-chloro-10-(2-fluoro-6-hydroxyphenyl)-8-(2-isopropyl-4-methylpyridin-3-yl)-6-methyl-2,3,4,4a,6,8-hexahydro-1H-pyrazino[1′,2′:4,5]pyrazino[2,3-c][1,8]naphthyridine-5,7-dione]
- Crystalline form change on heating (variable-temperature XRPD) ([1]; heating to 80° C. or 130° C. in a N2 atmosphere): no significant crystalline form changes were observed

SMILES: C=CC(=O)N1CCN2c3c(c(=O)n(-c4c(C)ccnc4C(C)C)c4nc(-c5c(O)cccc5F)c(Cl)cc34)N(C)C(=O)[C@H]2C1 [Crystalline form 6, (4aR,8R)-3-acryloyl-11-chloro-10-(2-fluoro-6-hydroxyphenyl)-8-(2-isopropyl-4-methylpyridin-3-yl)-6-methyl-2,3,4,4a,6,8-hexahydro-1H-pyrazino[1′,2′:4,5]pyrazino[2,3-c][1,8]naphthyridine-5,7-dione]
- Polymorphic transition or not [2, 6]: No
- Polymorphic transition or not [2, 7]: No
- Polymorphic transition or not [2, 8]: No
- Polymorphic transition or not [2, 9]: No
- Polymorphic transition or not [2, 10]: No
- Polymorphic transition or not [2, 11]: No
- Polymorphic transition or not [2, 12]: No
- Polymorphic transition or not [2, 13]: No
- Polymorphic transition or not [2, 14]: No
- Polymorphic transition or not [2, 15]: No
- Polymorphic transition or not [2, 16]: No
- Polymorphic transition or not [2, 17]: No
- Polymorphic transition [2, 18]: neither crystalline form 6 (Example 12) nor crystalline form 3 (Example 3) exhibited polymorphic transition
- Polymorphic transition [3]: mild transition
- Crystalline form ([3]; Initial, 0 days): Crystalline form 6
- Purity (%) ([4]; 40° C./75% RH/open, 1 week): 99.56%
- Water content (%) ([4]; 40° C./75% RH/open, 1 week): 8.7%
- Polymorphic transition or not ([4]; 40° C./75% RH/open, 1 week): No
- HPLC purity change [4]: no significant decrease in HPLC purity
- Polymorphic transition [4]: no polymorphic transition
- Purity (%) ([4]; 60° C./sealed, 1 day): 99.62%
- Water content (%) ([4]; 60° C./sealed, 1 day): 6.2%
- Polymorphic transition or not ([4]; 60° C./sealed, 1 day): No
- Purity (%) ([4]; Initial): 99.61%
- Water content (%) ([4]; Initial): 9.0%
- Relative to the initial (%) ([4]; 40° C./75% RH/open, 1 week): 99.95%
- Relative to the initial (%) ([4]; 60° C./sealed, 1 day): 100.01%
- Desorption curve (cycle 1, desorption) [5]: a plateau can be observed
- Crystallinity after DVS testing ([5]; after DVS testing): only slightly reduced

SMILES: C=CC(=O)N1CCN2c3c(c(=O)n(-c4c(C)ccnc4C(C)C)c4nc(-c5c(O)cccc5F)c(Cl)cc34)N(C)C(=O)[C@H]2C1 (single isomer, unassigned) [Amorphous form sample]
- Crystalline form ([3]; 60° C./75% RH (open), 1 month): Polymorphic transition
- Crystalline form ([3]; 60° C./75% RH (open), 7 days): Amorphous form
- Polymorphic transition [3]: occurrence of polymorphic transition
- Crystalline form ([3]; Initial, 0 days): Amorphous form
- Desorption curve (cycle 1, desorption) [5]: a plateau was observed

SMILES: C=CC(=O)N1CCN2c3c(c(=O)n(-c4c(C)ccnc4C(C)C)c4nc(-c5c(O)cccc5F)c(Cl)cc34)N(C)C(=O)[C@H]2C1 [Crystalline form 8, (4aR,8R)-3-acryloyl-11-chloro-10-(2-fluoro-6-hydroxyphenyl)-8-(2-isopropyl-4-methylpyridin-3-yl)-6-methyl-2,3,4,4a,6,8-hexahydro-1H-pyrazino[1′,2′:4,5]pyrazino[2,3-c][1,8]naphthyridine-5,7-dione]
- Polymorphic transition or not [2, 9]: No
- Polymorphic transition or not [2, 10]: No
- Polymorphic transition or not [2, 12]: No
- Polymorphic transition or not [2, 13]: No
- Polymorphic transition or not [2, 15]: No
- Polymorphic transition or not [2, 16]: No
- Polymorphic transition [2, 19]: neither crystalline form 8 (Example 40) nor crystalline form 9 (Example 42) exhibited polymorphic transition

SMILES: C=CC(=O)N1CCN2c3c(c(=O)n(-c4c(C)ccnc4C(C)C)c4nc(-c5c(O)cccc5F)c(Cl)cc34)N(C)C(=O)[C@H]2C1 [Crystalline form 9, (4aR,8R)-3-acryloyl-11-chloro-10-(2-fluoro-6-hydroxyphenyl)-8-(2-isopropyl-4-methylpyridin-3-yl)-6-methyl-2,3,4,4a,6,8-hexahydro-1H-pyrazino[1′,2′:4,5]pyrazino[2,3-c][1,8]naphthyridine-5,7-dione]
- Polymorphic transition or not [2, 9]: No
- Polymorphic transition [2, 19]: neither crystalline form 8 (Example 40) nor crystalline form 9 (Example 42) exhibited polymorphic transition
- XRPD pattern after heating test ([1]; heated to 100° C. and exposed to air): identical to that before heating

SMILES: C=CC(=O)N1CCN2c3c(c(=O)n(-c4c(C)ccnc4C(C)C)c4nc(-c5c(O)cccc5F)c(Cl)cc34)N(C)C(=O)[C@H]2C1 [Crystalline form 3, (4aR,8R)-3-acryloyl-11-chloro-10-(2-fluoro-6-hydroxyphenyl)-8-(2-isopropyl-4-methylpyridin-3-yl)-6-methyl-2,3,4,4a,6,8-hexahydro-1H-pyrazino[1′,2′:4,5]pyrazino[2,3-c][1,8]naphthyridine-5,7-dione]
- Polymorphic transition or not [2, 6]: No
- Polymorphic transition or not [2, 7]: No
- Polymorphic transition or not [2, 8]: No
- Polymorphic transition or not [2, 9]: No
- Polymorphic transition or not [2, 10]: No
- Polymorphic transition or not [2, 11]: No
- Polymorphic transition or not [2, 12]: No
- Polymorphic transition or not [2, 13]: No
- Polymorphic transition or not [2, 14]: No
- Polymorphic transition or not [2, 15]: No
- Polymorphic transition or not [2, 16]: No
- Polymorphic transition or not [2, 17]: No
- Polymorphic transition [2, 18]: neither crystalline form 6 (Example 12) nor crystalline form 3 (Example 3) exhibited polymorphic transition
- Crystalline form change on heating (variable-temperature XRPD) ([1]; heating to 150° C. and cooling to 30° C. in a N2 atmosphere): no crystalline form changes were observed
- Crystalline form ([3]; 60° C./75% RH (open), 1 month): Crystalline form 3
- Crystalline form ([3]; 60° C./75% RH (open), 7 days): Crystalline form 3
- Crystalline form ([3]; 60° C./75% RH (open), 14 days): Crystalline form 3
- Polymorphic transition [3]: no transition
- Crystalline form ([3]; Initial, 0 days): Crystalline form 3
- Purity (%) ([4]; 40° C./75% RH/open, 1 week): 99.27%
- Water content (%) ([4]; 40° C./75% RH/open, 1 week): 1.3%
- Polymorphic transition or not ([4]; 40° C./75% RH/open, 1 week): No
- HPLC purity change [4]: no significant decrease in HPLC purity
- Polymorphic transition [4]: no polymorphic transition
- Purity (%) ([4]; 60° C./sealed, 1 day): 99.27%
- Water content (%) ([4]; 60° C./sealed, 1 day): 1.1%
- Polymorphic transition or not ([4]; 60° C./sealed, 1 day): No
- Purity (%) ([4]; Initial): 99.33%
- Water content (%) ([4]; Initial): 0.9%
- Relative to the initial (%) ([4]; 40° C./75% RH/open, 1 week): 99.94%
- Relative to the initial (%) ([4]; 60° C./sealed, 1 day): 99.94%
- Weight gain (DVS) ([5]; 25° C./80% RH): less than 0.9%
- Hygroscopicity (in words) ([5]; DVS at 25° C., 0% RH to 95% RH): almost no hygroscopicity
- Crystalline form after DVS testing (XRPD) ([5]; after DVS testing): did not change
